The values that follow are results of earlier work, collected in PMC7395068, “The evolution of strategies to minimise the risk of human drug-induced liver injury (DILI) in drug discovery and development” (Archives of Toxicology, 2020).

Read-outs that look alike come from different tables or passages of the source.

For this series the following is noted: cited from earlier work.
Setting [1] is: binary in vivo DILI call given beside the severity category, ref Chen 2016.
Where [2] appears, read: human DILI concern category (LTKB DILIrank), ref Chen 2016.

`CN1C(CSCC(F)(F)F)Nc2cc(Cl)c(S(N)(=O)=O)cc2S1(=O)=O` (stereo not drawn) [polythiazide]: the “DILI +VE (5-8), DILI -VE (-4)” value under setting [1] is “-VE”. Further, the DILI severity category result under setting [2] was “Ambiguous DILI-concern”.

On to `CC[C@@H]([C@H](C)O)n1ncn(-c2ccc(N3CCN(c4ccc(OC[C@@H]5CO[C@@](Cn6cncn6)(c6ccc(F)cc6F)C5)cc4)CC3)cc2)c1=O` [posaconazole], for which the “DILI +VE (5-8), DILI -VE (-4)” value under setting [1] is “-VE”. The DILI severity category entry under setting [2] is on record as “Ambiguous DILI-concern”.

Regarding `C#CCC(Cc1cnc2nc(N)nc(N)c2n1)c1ccc(C(=O)N[C@@H](CCC(=O)O)C(=O)O)cc1` (stereo partly drawn) [pralatrexate], under setting [1], the “DILI +VE (5-8), DILI -VE (-4)” value is on record as “-VE”. Under setting [2], the DILI severity category result was “Ambiguous DILI-concern”.

As to `C[n+]1ccccc1/C=N/O` [pralidoxime], the “DILI +VE (5-8), DILI -VE (-4)” value under setting [1] was “-VE”. Besides, under setting [2], the DILI severity category result is given as “Ambiguous DILI-concern”.

For the compound `CCO[C@@H]1OC(=O)C[C@@H]1NC(=O)[C@@H]1CCCN2C(=O)CC[C@H](NC(=O)c3nccc4ccccc34)C(=O)N12` [pralnacasan], under setting [1], the “DILI +VE (5-8), DILI -VE (-4)” value is “+VE”. Besides, under setting [2], the DILI severity category entry is listed as “vMost-DILI-Concern”.

For `CCCN[C@H]1CCc2nc(N)sc2C1` [pramipexole], the “DILI +VE (5-8), DILI -VE (-4)” value under setting [1] is on record as “-VE”. The DILI severity category entry under setting [2] is given as “Ambiguous DILI-concern”.

For `COc1cc2nc(N3CCN(C(=O)c4ccco4)CC3)nc(N)c2cc1OC` [prazosin], where the note is “in vivo”, the “DILI +VE (5-8), DILI -VE (-4)” value is on record as “-VE” and the DILI severity category result is “Ambiguous DILI-concern”.

In the case of `CC(C)c1cccc(C(C)C)c1O` [propofol], for the setting “in vivo”, the “DILI +VE (5-8), DILI -VE (-4)” value was “+VE” and the DILI severity category entry was “vLess-DILI-Concern”.

With `NC(=O)[C@@H]1CCCN1C(=O)[C@H](Cc1cnc[nH]1)NC(=O)[C@@H]1CCC(=O)N1` [protirelin], where the note is “in vivo”, the “DILI +VE (5-8), DILI -VE (-4)” value was “-VE” and the DILI severity category result is listed as “vNo-DILI-Concern”.

With `Fc1ccccc1C1=NCC(=S)N(CC(F)(F)F)c2ccc(Cl)cc21` [quazepam], the “DILI +VE (5-8), DILI -VE (-4)” value under setting [1] is on record as “-VE”. Under setting [2], the DILI severity category entry was “vNo-DILI-Concern”.

In the case of `OCCOCCN1CCN(C2=Nc3ccccc3Sc3ccccc32)CC1` [quetiapine], under setting [1], the “DILI +VE (5-8), DILI -VE (-4)” value is given as “+VE”. Moreover, the DILI severity category result under setting [2] is given as “vLess-DILI-Concern”.

For `COCCCOc1ccnc(C[S+]([O-])c2nc3ccccc3[nH]2)c1C` (stereo not drawn) [rabeprazole], the “DILI +VE (5-8), DILI -VE (-4)” value under setting [1] is on record as “+VE”. Moreover, under setting [2], the DILI severity category entry is recorded as “vLess-DILI-Concern”.

With `CCC(=O)NCC[C@@H]1CCc2ccc3c(c21)CCO3` [ramelteon], the “DILI +VE (5-8), DILI -VE (-4)” value under setting [1] was “-VE”. The DILI severity category entry under setting [2] is listed as “vNo-DILI-Concern”.

Turning to `CCOC(=O)[C@H](CCc1ccccc1)N[C@@H](C)C(=O)N1[C@H](C(=O)O)C[C@@H]2CCC[C@@H]21` [ramipril], for the setting “in vivo”, the “DILI +VE (5-8), DILI -VE (-4)” value is “+VE” and the DILI severity category result was “vLess-DILI-Concern”.

In the case of `C#CCN[C@@H]1CCc2ccccc21` [rasagiline], the “DILI +VE (5-8), DILI -VE (-4)” value under setting [1] is recorded as “-VE”. Besides, the DILI severity category result under setting [2] is recorded as “Ambiguous DILI-concern”.

Regarding `CNC(=O)c1cnn(-c2nc(N)c3ncn([C@@H]4O[C@H](CO)[C@@H](O)[C@H]4O)c3n2)c1` [regadenoson], under “in vivo”, the “DILI +VE (5-8), DILI -VE (-4)” value was “-VE” and the DILI severity category result is “vNo-DILI-Concern”.

As to `CCOc1cc(CC(=O)N[C@@H](CC(C)C)c2ccccc2N2CCCCC2)ccc1C(=O)O` [repaglinide], the “DILI +VE (5-8), DILI -VE (-4)” value under setting [1] is recorded as “+VE”. For the same compound, the DILI severity category entry under setting [2] is recorded as “vLess-DILI-Concern”.

In the case of `COC(=O)[C@H]1[C@H]2C[C@@H]3c4[nH]c5cc(OC)ccc5c4CCN3C[C@H]2C[C@@H](OC(=O)c2cc(OC)c(OC)c(OC)c2)[C@@H]1OC` [reserpine], the “DILI +VE (5-8), DILI -VE (-4)” value under setting [1] is on record as “-VE”. Further, the DILI severity category entry under setting [2] is given as “vNo-DILI-Concern”.
